“And” between values parts separate entries of the source, which are not always exact repeats. Equal values may be shown once. Where a name gives a salt, the structure may show the parent alone. Read-outs that look alike come from different tables or passages of the source.
How the values were obtained:
[1] = molecular target: T1, horse serum butyrylcholinesterase (Equus caballus, UniProt P81908); assay: biochemical; conditions: for inhibition at 10 µg/mL: read-out: % Inhibition ± S.D. at 10.0 µg·mL^−1 BChE; for IC50: read-out: BChE Inhibition IC50 (converted)
T1 construct: horse serum butyrylcholinesterase (EC 3.1.1.8, Sigma, St. Louis, MO, USA); purchased Sigma, St. Louis, MO, USA; host or cells: horse serum
Experimental: (§1) A modified spectrophotometric method of Ellman et al. was used for the determination of inhibitory activity against AChE and BChE. Electric eel acetylcholinesterase (Type-VI-S, EC 3.1.1.7, Sigma, St. Louis, MO, USA) and horse serum butyrylcholinesterase (EC 3.1.1.8, Sigma, St. Louis, MO, USA) were used as the test enzymes and acetylthiocholine iodide and butyrylthiocholine chloride (Sigma, St. Louis, MO, USA) were employed as the respective substrates. The ChE activity was evaluated with the detection reagent 5,5′-dithio-bis(2-nitrobenzoic) acid (DTNB, Sigma, St. Louis, MO, USA). All the other reagents and conditions were the same as described in our previous publication. In brief, the following reaction mixture was added by a multichannel automatic pipette (Gilson Pipetman, Villiers Le Bel, France) in a 96-well microplate and incubated for 15 min at 25 °C: 140 µL of […] sodium phosphate buffer (pH 8.0), 20 µL of […] DTNB, 20 µL of sample solutions (0.1–10 µg/mL) and 20 µL of acetylcholinesterase/butyrylcholinesterase solution (0.2 µM). The reaction was then initiated with the addition of 10 µL of acetylthiocholine iodide or butyrylthiocholine chloride (2 mM). […] Galanthamine (Sigma, St. Louis, MO, USA)—an alkaloid isolated from snowdrop—was employed as the reference inhibitory drug.
(§2) The measurements and calculations were performed using SoftMax PRO 4.3.2.LS software (Molecular Devices, San Jose, CA, USA). […] The extent of the enzymatic reaction was calculated based on the following equation: E = (C − T)/C × 100, where E is the activity of the enzyme. E expresses the effect of the test sample or the positive control on acetylcholinesterase and butyrylcholinesterase enzyme activity expressed as the percentage of the […] in the presence of the test sample or positive control. C is the absorbance of the control solvent (blank) in the presence of an enzyme, and T is the absorbance of the tested sample (plant extract or positive control in the solvent) in the presence of an enzyme.
(§3) Statistical differences between the reference and the sample groups were evaluated by one-way ANOVA (Statistica 13PL, StatSoft, Cracow, Poland) with Dunnett’s multiple comparison post-hoc test for which p < 0.05 was considered to be significant (* p < 0.05; ** p < 0.01; *** p < 0.001, **** p < 0.0001).

[2] = molecular target: T1, horse serum butyrylcholinesterase; assay: biochemical; conditions: BChE; for assumed competitive inhibition, substrate concentration = 1 mM; read-out: Ki app
[3] = molecular target: T2, Electric eel acetylcholinesterase (Electrophorus electricus, UniProt O42275); assay: biochemical; conditions: for inhibition at 10 µg/mL: read-out: % Inhibition ± S.D. at 10.0 µg·mL^−1 AChE, at 10.0 µg·mL^−1; for IC50: read-out: AChE IC50
T2 construct: purchased Sigma, St. Louis, MO, USA Type-VI-S
Experimental: as §1, §2, §3

[4] = system: cholinesterase; conditions: cited from earlier work
[5] = system: several cancer cell lines; conditions: isolated from rhizomes of Salvia tebesana Bunge; cited from earlier work

T2 sequence (O42275 24-633): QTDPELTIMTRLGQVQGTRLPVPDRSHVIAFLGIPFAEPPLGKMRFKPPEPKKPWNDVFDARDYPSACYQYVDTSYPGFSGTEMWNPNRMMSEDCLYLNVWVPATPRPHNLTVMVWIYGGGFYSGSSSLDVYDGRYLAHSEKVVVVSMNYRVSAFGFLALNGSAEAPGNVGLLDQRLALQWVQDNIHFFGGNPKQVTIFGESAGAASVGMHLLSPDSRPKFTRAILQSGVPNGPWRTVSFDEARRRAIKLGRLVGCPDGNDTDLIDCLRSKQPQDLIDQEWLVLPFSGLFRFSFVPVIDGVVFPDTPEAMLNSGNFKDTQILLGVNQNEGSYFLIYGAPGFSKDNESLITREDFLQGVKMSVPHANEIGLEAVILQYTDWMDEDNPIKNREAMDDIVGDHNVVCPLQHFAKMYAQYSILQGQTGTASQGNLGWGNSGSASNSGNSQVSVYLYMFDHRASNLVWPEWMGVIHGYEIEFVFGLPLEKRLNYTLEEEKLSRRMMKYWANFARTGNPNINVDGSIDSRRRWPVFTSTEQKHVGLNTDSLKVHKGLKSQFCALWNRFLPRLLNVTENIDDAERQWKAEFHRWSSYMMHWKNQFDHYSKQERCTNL
T1 sequence (P81908 whole entry): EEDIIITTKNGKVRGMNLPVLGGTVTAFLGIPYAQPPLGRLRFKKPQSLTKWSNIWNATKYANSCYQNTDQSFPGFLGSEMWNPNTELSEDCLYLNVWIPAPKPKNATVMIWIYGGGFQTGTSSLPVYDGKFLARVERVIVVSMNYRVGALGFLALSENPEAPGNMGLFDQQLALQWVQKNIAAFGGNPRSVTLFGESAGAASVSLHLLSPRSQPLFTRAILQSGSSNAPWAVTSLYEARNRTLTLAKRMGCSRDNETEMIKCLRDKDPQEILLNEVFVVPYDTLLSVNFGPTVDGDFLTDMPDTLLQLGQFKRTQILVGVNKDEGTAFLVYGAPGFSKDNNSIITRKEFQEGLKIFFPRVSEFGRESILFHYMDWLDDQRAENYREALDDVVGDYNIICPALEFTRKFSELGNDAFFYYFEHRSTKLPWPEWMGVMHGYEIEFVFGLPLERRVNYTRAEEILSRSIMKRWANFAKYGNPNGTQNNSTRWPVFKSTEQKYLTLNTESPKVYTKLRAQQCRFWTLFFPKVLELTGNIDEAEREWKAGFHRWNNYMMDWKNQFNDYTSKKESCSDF

Row | Compound | % Inhibition ± S.D. at 10.0 µg·mL^−1 BChE ([1]; at 10.0 µg·mL^−1) | inhibition at 10 µg/mL ([1]; at 10.0 µg·mL^−1) | IC50 [1] | Ki [2] | other results
1 | CC(=O)O[C@@H]1CCC(C)(C)c2ccc3c(c21)C(=O)C(=O)C1=C3OC[C@@H]1C [Compound 1, (1R,15R)-1-acetoxycryptotanshinone] | 95.9 ± 0.0% | 95.9% | 2.4 µM and 2.37 µM | 1.34 µM | 
2 | CC(=O)O[C@@H]1CCC(C)(C)c2ccc3c(c21)C(=O)C(=O)c1c(C)coc1-3 [Compound 2, (1R)-1-acetoxytanshinone IIA] | 85.3 ± 4.3% | 85.3% | 7.9 µM and 7.86 µM | 4.59 µM | 
3 | Cc1cc2c(cc(O)c1=O)C1(CO)CCCC(C)(C)C1CC2 (centres unmarked) [Compound 4, isograndifoliol] |  | 98.6% | 0.9 µM and 0.893 µM and 0.89 µM | 0.47 µM | inhibition at 10 µg/mL [3]: ≤ 50%; IC50 [3]: > 340 µM and 343 µM; BChE Inhibition IC50 [1]: below one micromole
4 | COc1ccc2c3c1O[C@H]1C[C@@H](O)C=C[C@@]31CCN(C)C2 [Galanthamine hydrobromide, reference compound] |  |  |  |  | inhibition at 10 µg/mL [1]: 86.8 ± 2.9%
5 | C[C@H]1COC2=C1C(=O)C(=O)c1c2ccc2c1CCCC2(C)C [cryptotanshinone] |  |  |  |  | cholinesterase inhibitory activity [4]: only moderate
6 | C[C@H]1COC2=C1C(=O)C(=O)c1cc3c(cc12)C(C)(C)CCC3=O [Compound 3, (R)-3,10,10-trimethyl-2,3,9,10-tetrahydroanthra[1,2-b]furan-4,5,7(8H)-trione] | 87.3 ± 1.0% | 87.3% | 50.8 µM | 30 µM | inhibition at 10 µg/mL [3]: ≤ 50%; IC50 [3]: 330 µM
7 | Aegyptinone A |  |  |  |  | cytotoxic activity against several cancer cell lines [5]: moderate
